The results in this text go back to PubChem BioAssay AID310 (DTP/NCI, 2004).

Each structure is given as a SMILES string. Several values for one entry are separate records, joined by “and”; a condition that tells them apart may be missing. Equal values may be shown once. Results filed as inconclusive are left out. Where a SMILES comes first, the peptide text is derived from it. [ ]: non-standard residue; d: D form. Ac5c = NC1(C(=O)O)CCCC1

For the experiment, the system named is C3AKF1 mice, osteogenic sarcoma HE10734 s.c., tumor weight T/C. Nature of the experiment: NCI In Vivo Anticancer Drug Screen. Data for tumor model Osteogenic Sarcoma HE 10734 (subcutaneous) in C3AKF1 (CHKRF1) mice. The settings on record: endpoint: mean tumor weight, schedule: Q01DX010 (ip), higher = larger tumour. As for the experimental part:
The antitumor activity of compounds was measured in mice bearing transplantable tumors. Survival or tumor size were measured and the results are expressed as the measurement made in the treated group (T) divided by the measurement made in the vehicle treated control group (C). The tumor model used in this assay is Osteogenic Sarcoma HE 10734 (subcutaneous) in C3AKF1 (CHKRF1) mice

The mark [1] stands for this setting: dose: 6.25 mg/kg/injection, vehicle: carboxymethylcellulose (CMC).
Where [2] appears, read: dose: 12.5 mg/kg/injection, vehicle: carboxymethylcellulose (CMC).
Where [3] appears, read: dose: 25.0 mg/kg/injection, vehicle: carboxymethylcellulose (CMC).
[4] abbreviates: dose: 50.0 mg/kg/injection, vehicle: carboxymethylcellulose (CMC).
Setting [5] is: dose: 12.5 mg/kg/injection, vehicle: saline.
Where [6] appears, read: dose: 25.0 mg/kg/injection, vehicle: saline.
Where [7] appears, read: dose: 50.0 mg/kg/injection, vehicle: saline.
The mark [8] stands for this setting: dose: 30.0 mg/kg/injection, vehicle: carboxymethylcellulose (CMC).
[9] abbreviates: dose: 6.0 mg/kg/injection, vehicle: saline.
[10] abbreviates: dose: 12.0 mg/kg/injection, vehicle: saline.
Where [11] appears, read: dose: 3.0 mg/kg/injection, vehicle: saline.
The mark [12] stands for this setting: dose: 100.0 mg/kg/injection, vehicle: saline.
Setting [13] is: dose: 150.0 mg/kg/injection, vehicle: saline.
Where [14] appears, read: dose: 75.0 mg/kg/injection, vehicle: saline.
Where [15] appears, read: dose: 300.0 mg/kg/injection, vehicle: saline.

`O=C(c1ccc(C(=O)N2CC2)cc1)N1CC1`: the T/C was 55 % of control (dose: 3.13 mg/kg/injection, vehicle: carboxymethylcellulose (CMC)); 106 % of control under setting [1]; 118 % of control under setting [2].
On to `CSc1ncc(Br)c(Sc2nc(N)nc3nc[nH]c23)n1`, for which the T/C is 103 % of control (dose: 1.5 mg/kg/injection, vehicle: carboxymethylcellulose (CMC)); 87 % of control (dose: 3.0 mg/kg/injection, vehicle: carboxymethylcellulose (CMC)); 55 % of control (dose: 6.0 mg/kg/injection, vehicle: carboxymethylcellulose (CMC)); 77 % of control (dose: 12.0 mg/kg/injection, vehicle: carboxymethylcellulose (CMC)).
On to `Cc1ccc(N2CCN(CCCN3CCN(c4ccc(Cl)cc4)CC3)CC2)cc1`, for which the T/C was 97 % of control under setting [1], 77 % of control under setting [2] and 102 % of control under setting [3].
For the molecule `O=C(O)Cc1ccc(C2CCCCC2)cc1`, the T/C (dose: 150.0 mg/kg/injection, vehicle: carboxymethylcellulose (CMC)) is 95 % of control.
On to `CN(C)c1ccc(/C=C\c2ccnc3ccccc23)cc1`, for which the T/C (dose: 2.5 mg/kg/injection, vehicle: carboxymethylcellulose (CMC)) was 50 % of control; the T/C (dose: 14.0 mg/kg/injection, vehicle: carboxymethylcellulose (CMC)) is 68 % of control; the T/C (dose: 22.0 mg/kg/injection, vehicle: carboxymethylcellulose (CMC)) is 44 % of control; the T/C under setting [4] is 48 % of control; the T/C (dose: 75.0 mg/kg/injection, vehicle: carboxymethylcellulose (CMC)) was 27 % of control; the T/C (dose: 100.0 mg/kg/injection, vehicle: carboxymethylcellulose (CMC)) is 67 % of control.
Turning to `CCN(CC)Cc1cc(Nc2c3ccccc3nc3cc(Cl)ccc23)ccc1O`, the T/C is 78 % of control under setting [5], 111 % of control under setting [6] and 70 % of control under setting [7].
As for `C/C=C1\CN(C)[C@H]2Cc3c([nH]c4ccccc34)[C@@H](c3cc4[nH]c5c(c4cc3OC)CCN3C[C@H]4C[C@H](CC)[C@H]3[C@@]5(C(=O)OC)C4)C[C@H]1C2C(=O)OC` (some centres not stated), the T/C (dose: 20.0 mg/kg/injection, vehicle: water) was 49 % of control.
Consider `CS(=O)(=O)OC[C@@H](O)[C@@H](O)COS(C)(=O)=O`, for which the T/C was 88 % of control (dose: 62.5 mg/kg/injection, vehicle: carboxymethylcellulose (CMC)); 53 % of control and 74 % of control (dose: 125.0 mg/kg/injection, vehicle: carboxymethylcellulose (CMC)); 92 % of control and 109 % of control (dose: 500.0 mg/kg/injection, vehicle: carboxymethylcellulose (CMC)).
`CCCCn1cnc2c(SC)nc(N)nc21`: the T/C is 69 % of control under setting [8] and 71 % of control (dose: 115.0 mg/kg/injection, vehicle: carboxymethylcellulose (CMC)).
In the case of `[I][Hg][CH2]C1COCC([CH2][Hg][I])O1.[I][Hg][CH2]C1COCC([CH2][Hg][I])O1` (configuration not stated), the T/C reads like this: under setting [9], 83 % of control; under setting [10], 52 % of control.
For `CCCCn1cnc2c(=S)nc(N)[nH]c21`, the T/C under setting [11] was 49 % of control; the T/C under setting [9] is 51 % of control; the T/C (dose: 11.0 mg/kg/injection, vehicle: saline) is 29 % of control; the T/C (dose: 22.0 mg/kg/injection, vehicle: saline) is 7 % of control.
Regarding `NCC(=O)NC1(C(=O)O)CCCC1` (H-Gly-[Ac5c]-OH), the T/C was 79 % of control (dose: 66.0 mg/kg/injection, vehicle: saline); 58 % of control under setting [12]; 35 % of control under setting [13]; 20 % of control and 27 % of control (dose: 225.0 mg/kg/injection, vehicle: saline).
As for `NC(N)=N/N=C/C=N/N=C(N)N`, the T/C under setting [8] was 81 % of control.
`CC(/C=N/N=C(N)N)=N/N=C(N)N`: the T/C runs as follows: under setting [5], 85 % of control; under setting [6], 63 % of control.
Regarding `O=c1[nH]cnc2n[nH]nc12`, the T/C runs as follows: under setting [14], 80 % of control; under setting [13], 103 % of control; under setting [15], 87 % of control; (dose: 600.0 mg/kg/injection, vehicle: saline) 99 % of control.
In the case of `Cn1cnc([N+](=O)[O-])c1Sc1nc(N)nc2c1ncn2C1OC(CO)C(O)C1O` (configuration not stated), the T/C (dose: 7.5 mg/kg/injection, vehicle: carboxymethylcellulose (CMC)) is 96 % of control.
Consider `CN(C)CCCN1c2ccccc2Sc2ccc(C(F)(F)F)cc21`, for which the T/C runs as follows: under setting [10], 90 % of control; under setting [6], 90 % of control.
`CCCC(=O)NC1=C(N2CC2)C(=O)C(NC(=O)CCC)=C(N2CC2)C1=O`: the T/C reads like this: (dose: 0.5 mg/kg/injection, vehicle: saline) 104 % of control; (dose: 0.75 mg/kg/injection, vehicle: saline) 72 % of control; (dose: 1.1 mg/kg/injection, vehicle: saline) 83 % of control; (dose: 1.7 mg/kg/injection, vehicle: saline) 47 % of control and 60 % of control.
Consider `CC1(C)N=C(N)N=C(N)N1c1cccc(Br)c1`, for which the T/C is 89 % of control (dose: 4.4 mg/kg/injection, vehicle: carboxymethylcellulose (CMC)); 102 % of control (dose: 6.6 mg/kg/injection, vehicle: carboxymethylcellulose (CMC)); 50 % of control and 51 % of control (dose: 10.0 mg/kg/injection, vehicle: carboxymethylcellulose (CMC)).
On to `O=C(O)C(=O)c1ccc(-c2ccccc2)cc1`, for which, where the note is “dose: 35.0 mg/kg/injection, vehicle: carboxymethylcellulose (CMC)”, the T/C was 69 % of control.
`C=CC(=O)NCNC(=O)C=C`: the T/C is, setting by setting: (dose: 37.5 mg/kg/injection, vehicle: saline) 66 % of control; under setting [14], 65 % of control.
For the molecule `O=C1N(Cl)C(=O)C(c2ccc(Cl)cc2)(c2ccc(Cl)cc2)N1Cl`, the T/C reads like this: (dose: 10.0 mg/kg/injection, vehicle: saline) 70 % of control; (dose: 20.0 mg/kg/injection, vehicle: saline) 58 % of control; (dose: 40.0 mg/kg/injection, vehicle: saline) 90 % of control; (dose: 80.0 mg/kg/injection, vehicle: saline) 67 % of control and 77 % of control; (dose: 120.0 mg/kg/injection, vehicle: saline) 48 % of control; (dose: 180.0 mg/kg/injection, vehicle: saline) 55 % of control. The T/C (dose: 270.0 mg/kg/injection, vehicle: saline) was 53 % of control.
As to `ClCCn1cnc2c(SCc3ccccc3)ncnc21`, the T/C under setting [6] was 75 % of control; the T/C under setting [7] is 64 % of control; the T/C under setting [12] is 56 % of control; the T/C under setting [15] was 69 % of control; the T/C (dose: 450.0 mg/kg/injection, vehicle: saline) was 65 % of control.
On to `ClCCn1cnc2c(SCc3ccccc3Cl)ncnc21`, for which the T/C is, setting by setting: under setting [7], 72 % of control; under setting [12], 56 % of control; (dose: 200.0 mg/kg/injection, vehicle: saline) 35 % of control.
In the case of `CCCNC(=NC)c1ccc(NC(=O)c2ccc(C(=O)Nc3ccc(C(=NC)NCCC)cc3)cc2)cc1`, the T/C runs as follows: under setting [11], 91 % of control; under setting [9], 46 % of control; under setting [10], 46 % of control.
For the molecule `O=C(O)CC(O)(CC(=O)O)C(=O)O.[Ga]`, the T/C was 84 % of control under setting [2], 84 % of control under setting [3] and 39 % of control under setting [4].
